The record followed here is ChEMBL document CHEMBL3751830, “Design and discovery of new pyrimidine coupled nitrogen aromatic rings as chelating groups of JMJD3 inhibitors” (Bioorg Med Chem Lett, 2016).

The source made the active and inactive calls. No cut-off for these calls is given here. Some results are limits rather than exact numbers.

Series [1] deals with T1, Lysine-specific demethylase 6B (Homo sapiens, UniProt O15054).
Description: Inhibition of JMJD3 (unknown origin) using biotinylated H3K27me3 peptide as substrate after 1 hr by AlphaLISA assay
The target of series [2] is T1, Lysine-specific demethylase 6B. The series can be described thus: Inhibition of JMJD3 (unknown origin) using biotinylated H3K27me3 peptide as substrate at 10 uM after 1 hr by AlphaLISA assay.
The nature of series [3]: Half life in human liver microsomes at 1 uM by LC/MS/MS analysis. Format: ADME. (In general: Liver microsomes are a subcellular fraction often used to study metabolism.)
The next series deals with CYP2D6 (Homo sapiens, UniProt P10635). Kind of series: Inhibition of CYP2D6 in human liver microsomes at 10 uM after 20 mins. The format is ADME.
Sequence of CYP2D6 (P10635 whole entry): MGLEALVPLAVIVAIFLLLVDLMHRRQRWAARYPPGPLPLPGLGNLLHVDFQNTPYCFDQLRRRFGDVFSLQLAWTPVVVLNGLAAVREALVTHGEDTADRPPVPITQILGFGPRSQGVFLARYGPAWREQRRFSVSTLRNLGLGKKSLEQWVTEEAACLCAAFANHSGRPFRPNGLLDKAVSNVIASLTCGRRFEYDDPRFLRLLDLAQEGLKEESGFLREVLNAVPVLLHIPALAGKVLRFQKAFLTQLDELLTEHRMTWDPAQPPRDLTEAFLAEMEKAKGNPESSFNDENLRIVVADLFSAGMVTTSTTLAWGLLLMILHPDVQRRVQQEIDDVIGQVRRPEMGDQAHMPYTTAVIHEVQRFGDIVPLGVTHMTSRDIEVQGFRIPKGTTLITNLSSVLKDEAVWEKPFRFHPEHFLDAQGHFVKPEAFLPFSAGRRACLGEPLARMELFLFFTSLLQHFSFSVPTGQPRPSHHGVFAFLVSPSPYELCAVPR
A further series deals with CYP2C9 (Homo sapiens, UniProt P11712). Kind of series: Inhibition of CYP2C9 in human liver microsomes at 10 uM after 20 mins. The format is ADME.
Sequence of CYP2C9 (P11712 whole entry): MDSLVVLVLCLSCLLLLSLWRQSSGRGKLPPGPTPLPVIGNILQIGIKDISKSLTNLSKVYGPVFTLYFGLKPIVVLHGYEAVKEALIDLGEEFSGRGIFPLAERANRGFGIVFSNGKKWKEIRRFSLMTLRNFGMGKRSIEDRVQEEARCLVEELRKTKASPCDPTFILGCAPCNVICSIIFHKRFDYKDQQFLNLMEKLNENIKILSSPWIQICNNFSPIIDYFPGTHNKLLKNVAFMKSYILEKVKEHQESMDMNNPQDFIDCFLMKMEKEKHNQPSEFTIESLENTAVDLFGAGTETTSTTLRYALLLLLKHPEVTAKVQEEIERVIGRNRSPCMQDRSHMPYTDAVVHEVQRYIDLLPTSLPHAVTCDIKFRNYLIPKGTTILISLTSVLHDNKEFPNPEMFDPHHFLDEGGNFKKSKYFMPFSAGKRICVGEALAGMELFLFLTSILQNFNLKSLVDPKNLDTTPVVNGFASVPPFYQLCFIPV
Another series has as its target T2, CYP1A2 (Homo sapiens, UniProt P05177).
T2 sequence (P05177 whole entry): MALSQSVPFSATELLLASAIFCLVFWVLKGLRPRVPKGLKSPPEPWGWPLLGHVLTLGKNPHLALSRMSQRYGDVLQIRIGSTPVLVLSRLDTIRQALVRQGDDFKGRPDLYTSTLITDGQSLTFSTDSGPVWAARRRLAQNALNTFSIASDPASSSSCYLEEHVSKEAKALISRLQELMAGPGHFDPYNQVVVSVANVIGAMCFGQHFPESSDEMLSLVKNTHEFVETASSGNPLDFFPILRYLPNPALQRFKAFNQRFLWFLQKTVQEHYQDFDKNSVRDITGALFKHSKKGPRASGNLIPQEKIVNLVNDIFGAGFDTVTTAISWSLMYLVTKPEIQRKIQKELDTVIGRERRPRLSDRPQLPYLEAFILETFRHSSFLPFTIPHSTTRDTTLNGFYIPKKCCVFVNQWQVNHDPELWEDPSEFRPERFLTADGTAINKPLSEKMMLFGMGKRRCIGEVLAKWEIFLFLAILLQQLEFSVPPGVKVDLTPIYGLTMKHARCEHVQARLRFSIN
The series can be described thus: Inhibition of CYP1A2 in human liver microsomes at 10 uM after 20 mins. The format is ADME.

The target of the next series is CYP2C19 (Homo sapiens, UniProt P33261). The series can be described thus: Inhibition of CYP2C19 in human liver microsomes at 10 uM after 20 mins. Format: ADME.
Sequence of CYP2C19 (P33261 whole entry): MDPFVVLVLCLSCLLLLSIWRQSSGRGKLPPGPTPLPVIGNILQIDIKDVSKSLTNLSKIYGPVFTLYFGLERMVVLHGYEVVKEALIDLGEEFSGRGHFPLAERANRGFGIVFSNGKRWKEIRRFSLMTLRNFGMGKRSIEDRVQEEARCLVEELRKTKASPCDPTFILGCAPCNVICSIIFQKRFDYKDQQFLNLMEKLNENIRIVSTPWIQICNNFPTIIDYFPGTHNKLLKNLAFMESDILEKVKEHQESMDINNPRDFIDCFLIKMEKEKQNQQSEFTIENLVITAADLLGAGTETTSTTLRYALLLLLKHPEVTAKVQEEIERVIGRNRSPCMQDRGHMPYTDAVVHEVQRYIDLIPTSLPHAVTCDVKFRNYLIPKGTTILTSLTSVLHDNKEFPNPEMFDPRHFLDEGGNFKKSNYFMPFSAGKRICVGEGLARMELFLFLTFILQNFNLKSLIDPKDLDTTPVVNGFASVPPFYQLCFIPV
For a further series, the target named is CYP3A4 (Homo sapiens, UniProt P08684). Kind of series: in vitro. To be noted: liver microsomes.
Sequence of CYP3A4 (P08684 whole entry): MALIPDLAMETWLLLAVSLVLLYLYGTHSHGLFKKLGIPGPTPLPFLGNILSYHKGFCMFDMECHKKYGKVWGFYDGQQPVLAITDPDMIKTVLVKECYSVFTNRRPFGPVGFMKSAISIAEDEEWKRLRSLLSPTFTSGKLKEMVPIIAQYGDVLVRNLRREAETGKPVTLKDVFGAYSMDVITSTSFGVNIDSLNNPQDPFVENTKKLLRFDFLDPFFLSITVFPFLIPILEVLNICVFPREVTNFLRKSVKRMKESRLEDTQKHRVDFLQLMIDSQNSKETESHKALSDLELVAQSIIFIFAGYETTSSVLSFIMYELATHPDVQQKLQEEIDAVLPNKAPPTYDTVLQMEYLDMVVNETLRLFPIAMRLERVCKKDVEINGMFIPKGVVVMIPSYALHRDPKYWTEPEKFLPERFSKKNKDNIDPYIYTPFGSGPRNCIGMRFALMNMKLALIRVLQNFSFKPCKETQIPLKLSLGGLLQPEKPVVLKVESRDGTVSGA
Series [4] can be described thus: Intrinsic clearance in human liver microsomes at 1 uM up to 30 mins by LC/MS/MS analysis. The note with it: read-out: CLH. The format is ADME.
The test system of series [5] is RAW264.7. Kind of series: Inhibition of LPS-induced TNFalpha production in mouse RAW264.7 cells after 24 hrs by ELISA. The format is functional, cell-based. For orientation: An ELISA detects its analyte on a solid surface through an enzyme-linked reagent.
The test system of series [6] is RAW264.7. The series can be described thus: Inhibition of LPS-induced TNFalpha production in mouse RAW264.7 cells 0.82 uM after 24 hrs by ELISA. Format: functional, cell-based.

T1 sequence (O15054 whole entry): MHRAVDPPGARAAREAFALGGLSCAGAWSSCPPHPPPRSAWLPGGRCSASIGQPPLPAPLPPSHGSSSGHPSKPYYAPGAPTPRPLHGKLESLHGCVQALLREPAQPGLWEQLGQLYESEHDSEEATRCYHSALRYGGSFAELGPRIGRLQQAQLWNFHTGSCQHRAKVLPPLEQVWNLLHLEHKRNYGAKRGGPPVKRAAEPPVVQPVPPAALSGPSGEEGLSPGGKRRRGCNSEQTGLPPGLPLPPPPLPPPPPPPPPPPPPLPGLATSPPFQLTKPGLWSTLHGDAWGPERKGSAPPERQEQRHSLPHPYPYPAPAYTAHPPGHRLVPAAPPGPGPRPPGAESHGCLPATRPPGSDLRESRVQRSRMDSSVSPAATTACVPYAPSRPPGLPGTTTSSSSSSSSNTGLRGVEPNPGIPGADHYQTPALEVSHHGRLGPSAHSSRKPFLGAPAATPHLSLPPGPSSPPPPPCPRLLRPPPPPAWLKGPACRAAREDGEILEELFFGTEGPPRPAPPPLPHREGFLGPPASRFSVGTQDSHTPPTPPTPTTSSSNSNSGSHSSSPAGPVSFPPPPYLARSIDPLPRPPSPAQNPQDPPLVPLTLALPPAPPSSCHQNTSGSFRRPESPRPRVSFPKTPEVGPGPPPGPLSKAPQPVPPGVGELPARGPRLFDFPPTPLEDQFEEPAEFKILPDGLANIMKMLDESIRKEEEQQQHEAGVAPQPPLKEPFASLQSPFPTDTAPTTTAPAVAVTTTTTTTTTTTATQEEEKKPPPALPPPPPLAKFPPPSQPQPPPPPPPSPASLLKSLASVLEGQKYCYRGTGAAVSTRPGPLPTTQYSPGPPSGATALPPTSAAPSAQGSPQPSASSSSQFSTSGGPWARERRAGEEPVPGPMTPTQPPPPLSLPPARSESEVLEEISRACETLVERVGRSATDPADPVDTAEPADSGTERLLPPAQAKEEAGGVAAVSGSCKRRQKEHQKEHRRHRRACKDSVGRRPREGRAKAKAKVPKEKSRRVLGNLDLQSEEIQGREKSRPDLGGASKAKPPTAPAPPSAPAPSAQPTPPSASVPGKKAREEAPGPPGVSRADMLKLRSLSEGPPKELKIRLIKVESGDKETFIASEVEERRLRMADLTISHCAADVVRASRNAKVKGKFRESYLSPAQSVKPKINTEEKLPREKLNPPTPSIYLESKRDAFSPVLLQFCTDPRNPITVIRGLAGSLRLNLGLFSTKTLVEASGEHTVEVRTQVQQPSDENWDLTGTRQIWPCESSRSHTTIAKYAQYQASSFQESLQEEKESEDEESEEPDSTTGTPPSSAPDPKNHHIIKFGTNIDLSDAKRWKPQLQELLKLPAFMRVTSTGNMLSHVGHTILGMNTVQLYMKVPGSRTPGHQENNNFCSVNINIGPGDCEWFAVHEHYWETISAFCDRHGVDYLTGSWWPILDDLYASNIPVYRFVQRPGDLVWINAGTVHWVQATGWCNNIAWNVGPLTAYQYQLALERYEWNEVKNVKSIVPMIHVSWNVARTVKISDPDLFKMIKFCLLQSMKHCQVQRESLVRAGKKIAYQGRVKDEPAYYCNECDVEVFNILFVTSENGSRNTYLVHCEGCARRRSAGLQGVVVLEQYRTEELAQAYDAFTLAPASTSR
Description for CYP3A4: Inhibition of CYP3A4 in human liver microsomes at 10 uM after 20 mins

In general, IC50 refers to the midpoint of a concentration-inhibition curve. A lower IC50 goes with inhibition by little substance. Consider `O=C(O)CCNc1nc(-c2nccs2)cc(N2CCN(c3ccccn3)CC2)n1`, for which the midpoint of inhibition in series [1], the IC50, lay at 900 nM.
What is called inhibition is the change of the read-out against control, counted positive when it falls. Regarding `Cc1ccccc1CNc1cc(-c2nccs2)nc(NCCC(=O)O)n1`, in [2], the inhibition is -0.6%.
What is called half-life is how long it takes for the measured level to halve. A low value points to fast loss. For `O=C(O)CCNc1nc(N2CCc3ccccc3CC2)cc(-n2cccn2)n1`, in [3], the half-life at 1 µM was > 11.6 h. The inhibition at 20 min, 10 µM at CYP2D6 was 5%; on CYP2C9, 5%; against CYP1A2 it was 5%; at CYP2C19, 3%; on CYP3A4, 3%. The compound further displayed an IC50 in series [1] of 150 nM.
In the case of `O=C(O)CCNc1nc(N2CCN(c3ccccn3)CC2)cc(-n2cc3ccccc3n2)n1`, in series [2], the inhibition came to 54%.
In turn, `O=C(O)CCNc1nc(N2CCN(c3ccc(F)cc3)CC2)cc(-n2cc3ccccc3n2)n1` showed an IC50 in [1] of 5800 nM.
Same read-out and setting: then `O=C(O)CCNc1nc(N2CCc3ccccc3C2)cc(-n2ccnn2)n1`, with 1400 nM.
With `O=C(O)CCNc1nc(N2CCc3ccccc3CC2)cc(-n2cc3ccccc3n2)n1`, the microsomal CLint at 1 µM in [4] was found to be 5 µL/min/mg. Besides, the half-life at 1 µM in series [3] amounted to 4.28 h. Further, the inhibition at 20 min, 10 µM is 0% at CYP2D6; 17% on CYP2C9; 8% against CYP1A2; 11% at CYP2C19; 4% against CYP3A4. In series [1], this compound returned an IC50 of 2200 nM.
In the case of `O=C(O)CCNc1nc(N2CCc3ccccc3C2)cc(-n2cc3ccccc3n2)n1`, in series [1], the IC50 came to 6100 nM.
As to `CN(Cc1ccco1)c1cc(-c2nccs2)nc(NCCC(=O)O)n1`, in series [2], the inhibition is 43.9%.
In [1], `O=C(O)CCNc1nc(N2CCc3ccccc3C2)cc(-n2cccn2)n1` showed an IC50 of 490 nM. That is a sub-micromolar value.
On to `O=C(O)CCNc1nc(NC2Cc3ccccc3C2)cc(-c2nccs2)n1`, for which, in series [2], the inhibition came to 21.1%.
Regarding `CC(C)(C)OC(=O)NC1CCN(c2cc(-c3nccs3)nc(NCCC(=O)O)n2)CC1`, the inhibition in [2] was 9.8%.
Same read-out and setting: then `O=C(O)CCNc1nc(N2CCC(c3ccccc3)CC2)cc(-n2cc3ccccc3n2)n1`, with 30%; and `O=C(O)CCNc1nc(NCc2cc(C(F)(F)F)cc(C(F)(F)F)c2)cc(-c2nccs2)n1`, with 1%.
As to `O=C(O)CCNc1nc(-c2nccs2)cc(N2CCc3ccccc3CC2)n1`, the microsomal CLint at 1 µM in series [4] was determined as 5 µL/min/mg. For the same compound, the half-life at 1 µM in series [3] stood at 4.44 h. In addition, the inhibition at 20 min, 10 µM against CYP2D6 came to 8%; on CYP2C9, 9%; against CYP1A2, 9%; against CYP2C19, 13%; against CYP3A4, 12%. Moreover, half-maximal inhibition in series [1] (IC50) required 200 nM.
Turning to `O=C(O)CCNc1nc(NC2CCN(Cc3ccccc3)CC2)cc(-c2nccs2)n1`, the inhibition in series [2] was found to be 10%.
On to `O=C(O)CCNc1nc(-c2nccs2)cc(N2CCc3ccccc3C2)n1`, for which the IC50 in [1] was 990 nM. That is a sub-micromolar value.
As to `CCOC(=O)CCNc1cc(N2CCc3ccccc3CC2)nc(-c2ccccn2)n1`, the inhibition entry in the series on RAW264.7 [5] and with RAW264.7 [6] was “Active” in each case.
`O=C(O)CCNc1nc(N2CCc3ccccc3CC2)cc(-n2ccnn2)n1`: the half-life at 1 µM in [3] is > 11.6 h. Also, the inhibition at 20 min, 10 µM at CYP2D6 is 6%; against CYP2C9, 1%; at CYP1A2 it was 1%; at CYP2C19 it was 8%; against CYP3A4, 7%. Besides, the IC50 in series [1] is 210 nM.
Regarding `O=C(O)CCNc1nc(N2CCN(c3ccc(F)cc3)CC2)cc(-n2cccn2)n1`, half-maximal inhibition in series [1] (IC50) was put at 550 nM.
For `COc1cc(CNc2cc(-c3nccs3)nc(NCCC(=O)O)n2)cc(OC)c1`, the inhibition in series [2] was -8.7%.
As for `O=C(O)CCNc1nc(N2CCc3ccccc3CC2)cc(-n2nccn2)n1`, the microsomal CLint at 1 µM in series [4] amounted to 1 µL/min/mg. Further, the half-life at 1 µM in [3] was 38.5 h. The inhibition at 20 min, 10 µM turned out to be 6% against CYP2D6; 4% at CYP2C9; 4% against CYP1A2; 4% on CYP2C19; 7% against CYP3A4. The compound further had an IC50 in series [1] of 270 nM.
`O=C(O)CCNc1nc(-c2nccs2)cc(N2CCN(c3ccc(F)cc3)CC2)n1` came in with a concentration for half-maximal inhibition (IC50) in [1] of 600 nM.
`CC(=O)N1CCN(c2cc(-c3nccs3)nc(NCCC(=O)O)n2)CC1`: in [2], the inhibition was found to be 32.9%.
In turn, `O=C(O)CCNc1nc(N2CCN(c3ccccn3)CC2)cc(-n2nccn2)n1` returned an IC50 in [1] of 1300 nM.
Still for that read-out and setting: the result for `O=C(O)CCNc1nc(N2CCN(c3ccc(F)cc3)CC2)cc(-n2nccn2)n1` reads 2600 nM.
In the case of `CCOC(=O)CCNc1nc(-c2nccs2)cc(N2CCc3ccccc3CC2)n1`, the inhibition entry with RAW264.7 [5] and in the series on RAW264.7 [6] was “Active” in each case.
Regarding `O=C(O)CCNc1nc(N2CCC(c3ccccc3)CC2)cc(-n2ccnn2)n1`, the IC50 in series [1] stood at 2100 nM.
In [1], `O=C(O)CCNc1nc(N2CCN(c3ccc(Cl)c(Cl)c3)CC2)cc(-n2nccn2)n1` registered an IC50 of 1400 nM.
Consider `COc1ccccc1N1CCN(c2cc(-n3cccn3)nc(NCCC(=O)O)n2)CC1`, for which, in [1], the IC50 was > 20000 nM.
On the same count and under the same terms, the result for `O=C(O)CCNc1nc(N2CCC(c3ccccc3)CC2)cc(-n2cccn2)n1` reads 750 nM.
Consider `O=C(O)CCNc1nc(N2CCN(c3ccc(Cl)c(Cl)c3)CC2)cc(-n2ccnn2)n1`, for which the inhibition in series [2] turned out to be 74%.
`O=C(O)CCNc1nc(-c2nccs2)cc(N2CCC(c3ccccc3)CC2)n1` showed an IC50 in [1] of 1200 nM.
On to `O=C(O)CCNc1cc(N2CCc3ccccc3CC2)nc(-c2ccccn2)n1`, for which the microsomal CLint at 1 µM in series [4] is 3 µL/min/mg. The half-life at 1 µM in series [3] was found to be 8.25 h. The inhibition at 20 min, 10 µM was found to be 20% at CYP2D6, 5% against CYP2C9, 10% at CYP1A2 and 16% against CYP2C19.
As to `O=C(O)CCNc1nc(-c2nccs2)cc(N2CCC(N3CCCC3)CC2)n1`, in series [2], the inhibition was -8.4%.
In the case of `O=C(O)CCNc1nc(-c2nccs2)cc(N2CCN(c3ccc(Cl)c(Cl)c3)CC2)n1`, 940 nM corresponded to half-maximal inhibition in series [1] (IC50).
Regarding `CCOC(=O)CCNc1nc(N2CCc3ccccc3CC2)cc(-n2ccnn2)n1`, the inhibition result in the series with RAW264.7 [5] and with RAW264.7 [6] was “Active” each time.
For the compound `CCOC(=O)CCNc1nc(N2CCc3ccccc3CC2)cc(-n2nccn2)n1`, the inhibition result in the series with RAW264.7 [5] was “Dose-dependent effect”. Moreover, in the series with RAW264.7 [6], the inhibition result was “Active”.
For `CC(C)NC(=O)CN1CCN(c2cc(-c3nccs3)nc(NCCC(=O)O)n2)CC1`, in [2], the inhibition was -5.1%.
The same measure, in the same setting: then `Cc1ccccc1C1CCN(c2cc(-c3nccs3)nc(NCCC(=O)O)n2)CC1`, with 87.5%.
`O=C(O)CCNc1nc(N2CCc3ccccc3C2)cc(-n2nccn2)n1` had an IC50 in series [1] of 1500 nM. In other words, the single-digit micromolar range.
The same measure, in the same setting: then `O=C(O)CCNc1nc(N2CCN(c3ccc(Cl)c(Cl)c3)CC2)cc(-n2cccn2)n1`, with 740 nM; and `COc1ccccc1N1CCN(c2cc(-c3nccs3)nc(NCCC(=O)O)n2)CC1`, with 2100 nM.
Same read-out and setting: the result for `O=C(O)CCNc1nc(N2CCN(c3ccc(Cl)c(Cl)c3)CC2)cc(-n2cc3ccccc3n2)n1` reads > 100000 nM; that for `O=C(O)CCNc1nc(N2CCN(c3ccccn3)CC2)cc(-n2cccn2)n1`, 1000 nM; that for `O=C(O)CCNc1nc(N2CCN(c3ccc(F)cc3)CC2)cc(-n2ccnn2)n1`, 10000 nM.
As to `O=C(O)CCNc1nc(N2CCC(c3ccccc3)CC2)cc(-n2nccn2)n1`, in series [1], the midpoint of inhibition, the IC50, lay at 1200 nM.
For the compound `CCOC(=O)CCNc1nc(N2CCc3ccccc3CC2)cc(-n2cccn2)n1`, the inhibition result with RAW264.7 [5] was “Dose-dependent effect”. For the same compound, the inhibition result in the series with RAW264.7 [6] was “Active”.
Turning to `COc1ccccc1N1CCN(c2cc(-n3nccn3)nc(NCCC(=O)O)n2)CC1`, the IC50 in series [1] was > 20000 nM.
